Measured values: PMC9890585 (Chemical Science, 2022)

Biological target: Concanavalin A (Con A) (Canavalia ensiformis, UniProt P02866)
Format: biochemical, jack bean (Canavalia ensiformis)
Details: 1000 equiv. added after 180 min

COC1OC(CO)C(O)C(O)C1O [methyl-α-D-mannose]
effect of competitive inhibitor on Con A-complex aggregates: immediate deaggregation
